According to US7416728B2, “Growth blocking agents” (Kyto Biopharma, Inc., priority 1992, dated 2008):

Legend:
Myelocytic leukemia = conditions: drug combined with vitamin B12 depletion (nitrous oxide); myelocytic leukemia/rats; cited from earlier work
Acute leukemia = conditions: drug combined with vitamin B12 depletion (nitrous oxide); acute leukemia/rats; cited from earlier work
[1] = system: Raji Burkitt lymphoma cells; assay: Subcutaneous Raji Burkitt lymphoma in nu/nu mice, tumor size; type: in vivo
Procedure: Nu/nu mice are injected subcutaneously with 1 million Raji Burkitt lymphoma cells. After two weeks, barely palpable nodules are present at the injection site. Measurements are made in three dimensions with a planarimeter and equally sized tumors assigned to experimental groups of 10 mice. […] Therapy is administered once weekly. Controls of antibody and drug alone, as well as vehicle controls, are included. Mice are monitored visually for toxicity, death, and tumor size weekly for 8 weeks, at which time the experiment is terminated, the mice sacrificed, and the tumors removed and weighed.

[2] = system: Raji Burkitt lymphoma cells; assay: Cell viability by reduction of tetrazolium dye, three days, with and without methotrexate; type: cell-based, human; conditions: 100% lysis control = .047
Procedure: Antibody D2/20 at a range of concentrations is incubated with Raji Burkitt lymphoma cells in microtiter plates for three days with and without chemotherapeutic drugs. Cell viability is measured by reduction of tetrazolium dye. Only viable cells metabolize the dye to an insoluble, colored product which is subsequently solubilized and read in a spectrophotometer.

For NC1(C(=O)O)CCCC1 [cycloleucine], the “Therapeutic Results” value (Myelocytic leukemia) is given as “additive” and the “Therapeutic Results” value (Acute leukemia) is given as “synergistic”.

In the case of CN(Cc1cnc2nc(N)nc(N)c2n1)c1ccc(C(=O)N[C@@H](CCC(=O)O)C(=O)O)cc1 [Methotrexate, methotrexate], the “Therapeutic Results” value (Myelocytic leukemia) is listed as “synergistic”, the “average of serial tumor measurements converted to weight” value (shortened to “average”) ([1]; week 1, methotrexate 5 Milligrams/M^2 i.v. once weekly) is listed as “.07 grams” and the “average” value ([1]; week 1, methotrexate 10 Milligrams/M^2 i.v. once weekly) is listed as “.05 grams”. For the same molecule, the “average” value ([1]; week 1, methotrexate 50 Milligrams/M^2 i.v. once weekly) was “.04 grams”, the “average” value ([1]; week 2, methotrexate 5 Milligrams/M^2 i.v. once weekly) was “.14 grams” and the “average” value ([1]; week 2, methotrexate 10 Milligrams/M^2 i.v. once weekly) was “.12 grams”. For the same molecule, the “average” value ([1]; week 2, methotrexate 50 Milligrams/M^2 i.v. once weekly) was “.10 grams”, the “average” value ([1]; week 3, methotrexate 5 Milligrams/M^2 i.v. once weekly) was “.43 grams” and the “average” value ([1]; week 3, methotrexate 10 Milligrams/M^2 i.v. once weekly) was “.30 grams”. For the same molecule, the “average” value ([1]; week 3, methotrexate 50 Milligrams/M^2 i.v. once weekly) was “.25 grams”, the “average” value ([1]; week 4, methotrexate 5 Milligrams/M^2 i.v. once weekly) was “.70 grams” and the “average” value ([1]; week 4, methotrexate 10 Milligrams/M^2 i.v. once weekly) was “.53 grams”. For the same molecule, the “average” value ([1]; week 4, methotrexate 50 Milligrams/M^2 i.v. once weekly) was “.41 grams”, the “average” value ([1]; week 5, methotrexate 5 Milligrams/M^2 i.v. once weekly) was 1.2 grams and the “average” value ([1]; week 5, methotrexate 10 Milligrams/M^2 i.v. once weekly) was “.92 grams”. The “average” value ([1]; week 5, methotrexate 50 Milligrams/M^2 i.v. once weekly) was “.73 grams”, the “average” value ([1]; week 6, methotrexate 5 Milligrams/M^2 i.v. once weekly) was 2.6 grams and the “average” value ([1]; week 6, methotrexate 10 Milligrams/M^2 i.v. once weekly) was 2.1 grams. The “average” value ([1]; week 6, methotrexate 50 Milligrams/M^2 i.v. once weekly) was 1.4 grams, the “average” value ([1]; week 7, methotrexate 5 Milligrams/M^2 i.v. once weekly) was 4.8 grams and the “average” value ([1]; week 7, methotrexate 10 Milligrams/M^2 i.v. once weekly) was 4.8 grams. For the same molecule, the “average” value ([1]; week 7, methotrexate 50 Milligrams/M^2 i.v. once weekly) was 2.3 grams, the “average” value ([1]; week 8, methotrexate 5 Milligrams/M^2 i.v. once weekly) was 7.2 grams and the “average” value ([1]; week 8, methotrexate 10 Milligrams/M^2 i.v. once weekly) was 6.9 grams. For the same molecule, the “average” value ([1]; week 8, methotrexate 50 Milligrams/M^2 i.v. once weekly) was 3.4 grams, the “cell viability, tetrazolium dye reading” value ([2]; antibody 0, methotrexate 0.1 micrograms/ml) was “.993” and the “cell viability, tetrazolium dye reading” value ([2]; antibody 0, methotrexate 1 micrograms/ml) was “.798”. For the same molecule, the “Therapeutic Results” value (Acute leukemia) was “synergistic”.

In the case of O=c1[nH]cc(F)c(=O)[nH]1 [Clone 5-FU, 5-fluorouracil], the “Therapeutic Results” value (Myelocytic leukemia) is given as “additive” and the “Therapeutic Results” value (Acute leukemia) is given as “additive”.
